How the values were obtained:
[1] = test system: authentic SARS-CoV-2 WT (nCoV-SH01); test: microbe, parasite or virus in culture; format: cell-based; conditions: Severe acute respiratory syndrome coronavirus 2, Vero C1008
[2] = test system: SARS-CoV-2 PsV; test: microbe, parasite or virus in culture; format: cell-based; conditions: Severe acute respiratory syndrome coronavirus 2
[3] = test system: pseudotyped SARS-CoV-2 Alpha (B.1.1.7); test: microbe, parasite or virus in culture; format: cell-based; conditions: Severe acute respiratory syndrome coronavirus 2, Caco-2
[4] = test system: pseudotyped SARS-CoV-2 Beta (B.1.351); test: microbe, parasite or virus in culture; format: cell-based; conditions: Severe acute respiratory syndrome coronavirus 2, Caco-2
[5] = test system: pseudotyped SARS-CoV-2 Gamma (P.1); test: microbe, parasite or virus in culture; format: cell-based; conditions: Severe acute respiratory syndrome coronavirus 2, Caco-2
[6] = test system: pseudotyped SARS-CoV-2 Omicron (B.1.1.529); test: microbe, parasite or virus in culture; format: cell-based; conditions: Severe acute respiratory syndrome coronavirus 2, Caco-2
[7] = test system: cell-free SARS-CoV-2 PsV; test: Inactivation of cell-free SARS-CoV-2 PsV; format: cell-based; conditions: Severe acute respiratory syndrome coronavirus 2
[8] = test system: H5N1 PsV; test: microbe, parasite or virus in culture; format: cell-based, influenza virus; conditions: Influenza A virus, H5N1, MDCK, read-out: IC50 H5N1
[9] = test system: H7N9 PsV; test: microbe, parasite or virus in culture; format: cell-based, influenza virus; conditions: Influenza A virus, H7N9, MDCK, read-out: IC50 H7N9
[10] = test system: SARS-CoV-2 PsV; format: cell-based
[11] = test system: cell-free SARS-CoV PsV
[12] = test system: MERS-CoV PsV
[13] = test system: cell-free MERS-CoV PsV
[14] = in vitro; conditions: dog
[15] = Cytotoxicity (CCK-8) on Huh-7 cells; conditions: human
[16] = test system: SARS-CoV PsV; test: microbe, parasite or virus in culture; conditions: Severe acute respiratory syndrome coronavirus
[17] = test system: cell-free SARS-CoV PsV; test: microbe, parasite or virus in culture; conditions: Severe acute respiratory syndrome coronavirus
[18] = test system: MERS-CoV PsV; test: microbe, parasite or virus in culture; conditions: Middle East respiratory syndrome-related coronavirus, Huh-7
[19] = test system: cell-free MERS-CoV PsV; test: microbe, parasite or virus in culture; conditions: Middle East respiratory syndrome-related coronavirus, Huh-7
[20] = Cytotoxicity (CCK-8) on hACE2-293T cells; conditions: human
[21] = test system: authentic HCoV-OC43; test: CPE reduction assay, authentic HCoV-OC43; format: cell-based; conditions: Betacoronavirus 1; HCoV-OC43 infection, RD cells, CCK-8
[22] = test system: EBOV (Zaire); test: microbe, parasite or virus in culture; format: cell-based, Ebola virus; conditions: Zaire ebolavirus, Huh-7
[23] = test system: EBOV (Sudan); test: microbe, parasite or virus in culture; format: cell-based, Ebola virus; conditions: Zaire ebolavirus, Huh-7
[24] = test system: NiV; test: microbe, parasite or virus in culture; format: cell-based, Nipah virus; conditions: Henipavirus nipahense, U-87 MG
[25] = test system: LASV; test: organism not typed; format: cell-based, Lassa fever virus; conditions: Huh-7
[26] = test system: authentic ZIKV PRVABC59 (2015/Puerto Rico); test: microbe, parasite or virus in culture; format: cell-based; conditions: Zika virus, Vero C1008
[27] = test system: VSV PsV; test: microbe, parasite or virus in culture; format: cell-based, vesicular stomatitis virus; conditions: Vesicular stomatitis virus, Huh-7
[28] = test system: HPV PsV; format: cell-based, human papilloma virus
[29] = test system: authentic EV71; test: CPE reduction assay, authentic EV71; format: cell-based, human enterovirus 71 virus; conditions: RD cells
[30] = biological target: HIV-1 6-HB (Human immunodeficiency virus type 1, UniProt P04578); test: Inhibition of HIV-1 6-HB formation (ELISA); format: biochemical; conditions: HIV-1 6-HB formation measured by ELISA
HIV-1 6-HB, sequence (P04578 536-581, added parts left off): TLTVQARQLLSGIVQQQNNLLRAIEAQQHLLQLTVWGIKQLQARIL
HIV-1 6-HB, sequence (P04578 536-581, added parts left off): as above

[31] = test system: Vero E6 cells; format: cell-based
[32] = test system: SARS-CoV PsV

Row | SMILES | IC50 [1] [nM] | IC50 [2] [nM] | IC50 [3] [nM] | IC50 [4] [nM] | IC50 [5] [nM] | IC50 [6] [nM] | EC50 [7] [nM] | IC50 [8] [nM] | IC50 [9] [nM] | inhibition of SARS-CoV-2 PsV infection after unbound compound washed from cells [10] | SI CC50/EC50 [11] | SI CC50/IC50 [12] | SI CC50/EC50 [13] | CC50 [14] [nM] | CC50 at 48 h [15] [nM] | IC50 [16] [nM] | EC50 [17] [nM] | IC50 [18] [nM] | EC50 [19] [nM] | CC50 at 48 h [20] [nM] | also measured
1 | CCC(CC)COC(=O)[C@H](C)N[P@](=O)(OC[C@H]1O[C@@](C#N)(c2ccc3c(N)ncnn23)[C@H](O)[C@@H]1O)Oc1ccccc1 [Remdesivir, remdesivir, reference compound] | 1090 |  |  |  |  |  |  |  |  |  |  |  |  |  |  |  |  |  |  |  | 
2 | CCOc1ccc(CCN2C(=O)/C(=C/c3ccc(-c4ccc(Cl)c(C(=O)O)c4)o3)SC2=S)cc1 [FD009] | 30 | 50 | 550 | 240 | 470 | 580 | 160 | 150 ± 40 | 1410 ± 270 | not effective in inhibiting viral infection after washing | 144.75 | 98.36 | 94.97 | > 50000 | 27500 ± 1430 | 30 ± 10 | 120 ± 10 | 280 ± 20 | 290 ± 20 | 17400 ± 640 | 
3 | O=C(O)c1cc(-c2ccc(/C=C3\SC(=S)N(CCc4ccc(OCC5CC5)cc4)C3=O)o2)ccc1Cl [FD012] | 410 | 30 | 350 | 270 | 250 | 770 | 40 | 150 ± 10 | 230 ± 20 | not effective in inhibiting viral infection after washing | 102.50 | 169.27 | 372.40 | 41700 | 18600 ± 350 | 20 ± 10 | 120 ± 10 | 110 ± 10 | 50 ± 10 | 12300 ± 340 | IC50 [21]: 110 nM; IC50 [22]: 90 ± 20 nM; IC50 [23]: 190 ± 20 nM; IC50 [24]: 70 ± 10 nM; IC50 [25]: 320 ± 40 nM; IC50 [26]: 910 nM; IC50 [27]: 5 nM; inhibition of infection of nonenveloped HPV PsV [28]: could not inhibit; inhibition of infection of authentic EV71 [29]: could not inhibit; IC50 [30]: 50100 nM; fluorescence intensity of treated cells (binding to cells) [31]: positively correlated with compound concentration; inhibitory activity relative to FD001 [32]: ~10 fold
4 | C#CCOCCOc1ccc(CCN2C(=O)/C(=C/c3ccc(-c4ccc(Cl)c(C(=O)O)c4)o3)SC2=S)cc1 [FD008] | 50 | 460 | 340 | 420 | 690 | 740 | 410 | 510 ± 140 | 2510 ± 330 |  | 123.37 | 125.48 | 56.38 | > 50000 | 38900 ± 1220 | 50 ± 10 | 190 ± 20 | 310 ± 20 | 690 ± 130 | 23400 ± 780 | SI CC50/IC50 [32]: 468.80

— publication PMC8954792 (Viruses, 2022)
